Laboratory results: patent US8017786B2, “Substituted β-phenyl-α-hydroxy-propanoic acid, synthesis method and use thereof” (Northwest University, priority 2006, dated 2011)
Counter-ions that a name gives are not always drawn.

How the values were obtained:
Format in all cases: in vivo, rat
[1] = tested on: lactate dehydrogenase (LDH); test: Serum LDH activity in rats with myocardial ischemia; settings: 10 mg/kg intragastric; serum, 24 h after ligation
Experimental: (§1) At 0.5 h after the rats of these groups were administered intragastrically, the standard II lead electrocardiogram (before modeling) was recorded, and the height of ST-T segment was measured. The rats of sham operation group were then subjected to coronary artery braid without ligation, and the rats of other groups were subjected to coronary artery ligation in accordance with the following method to establish cute myocardial ischemia models. The rats were subjected to etherization, fixed at supine position, and their normal electrocardiograms (before modeling) were recorded. The skin of left thorax was incised under aseptic conditions, the 4th intercostal muscles were isolated in blunt way, the heart was extruded by light pressure to the right thorax, the left anterior descending coronary artery was ligated at a position 2˜3 mm departing from the left coronary artery origin and between the pulmonary conus and the left auricle of heart, then the heart was sent back to thorax cavity immediately and sutured the incision. Penicillin was smeared topically for the prevention of infections. After operation, the electrocardiogram of postischemia was recorded immediately (at 0 min after modeling), and the height of ST-T segment was measured.

[2] = tested on: creatine kinase isoenzyme (CK-MB); test: Serum CK-MB activity in rats with myocardial ischemia; settings: 10 mg/kg intragastric; serum, 24 h after ligation
Experimental: as §1

creatine kinase (CK) = test: Serum CK activity in rats with myocardial ischemia; settings: 10 mg/kg intragastric; serum, 24 h after ligation
Experimental: as §1

anesthetized rats = test: Blood pressure and left ventricular function of anesthetized rats; settings: for change-rate of left intraventricular pressure MAX / change-rate of left intraventricular pressure, -MAX / contractive pressure / diastolic pressure / heart rate / left intraventricular pressure / mean arterial pressure: 11.4 mg/kg duodenal
Experimental: All data were input into PowerLab/8Sp data acquisition and processing system via RM-6000 multi-channel polygraph, and recorded, analyzed and processed by PowerLab/8Sp.
The abdomen was opened 1.5 cm below xiphoid bone to isolate duodenum, a small incision was formed on the duodenum away from blood vessels by ophthalmic scissors, a catheter was inserted and the incision was fixed by suture for administration. After the end of operation and a further waiting period of 30 min, normal data were recorded once the indexes to be monitored were stable.
Test drugs were duodenally administered via the catheter, and the indexes were monitored 5, 15, 30, 60, 90 and 120 min after the administration. The change ratios of the indexes were calculated in accordance with the following formula, and were used for statistic analysis among groups.

[3] = tested on: rats with acute myocardial ischemia; test: Area of myocardial infarction in rats with acute myocardial ischemia (coronary artery ligation); settings: 10 mg/kg intragastric; 24 h after coronary artery ligation
Experimental: as §1

malondialdehyde (MDA) = test: Serum MDA content in rats with myocardial ischemia; settings: 10 mg/kg intragastric; serum, 24 h after ligation
Experimental: as §1

[4] = tested on: superoxide dismutase (SOD); test: Serum SOD activity in rats with myocardial ischemia; settings: 10 mg/kg intragastric; serum, 24 h after ligation
Experimental: as §1

[5] = tested on: rats with acute myocardial ischemia; test: ST-T segment of ECG in rats with myocardial ischemia; settings: 10 mg/kg intragastric
Experimental: as §1

SMILES: COc1ccc(CCN(C)CCCC(C#N)(c2ccc(OC)c(OC)c2)C(C)C)cc1OC (stereo not drawn) [Verapamil, verapamil hydrochloride, reference compound]
- LDH [1]: 1160.8 ± 145.0 U/L
- CK-MB [2]: 776.6 ± 127.6 U/L
- CK (creatine kinase (CK)): 752.2 ± 102.8 U/L
- change-rate of left intraventricular pressure MAX (anesthetized rats; 5 min after administration): 4857.7 ± 1002.4 mmHg/s
- change-rate of left intraventricular pressure, -MAX (anesthetized rats; 5 min after administration): −3812.9 ± 779.3 mm/Hg/s
- contractive pressure (anesthetized rats; 5 min after administration): 115.30 ± 19.35 mmHg
- diastolic pressure (anesthetized rats; 5 min after administration): 59.69 ± 12.55 mmHg
- heart rate (anesthetized rats; 5 min after administration): 345.03 ± 33.81 beat/min
- left intraventricular pressure (anesthetized rats; 5 min after administration): 128.71 ± 14.20 mmHg
- mean arterial pressure (anesthetized rats; 5 min after administration): 78.22 ± 14.31 mmHg
- change-rate of left intraventricular pressure MAX (anesthetized rats; 15 min after administration): 4284.9 ± 793.2 mmHg/s
- change-rate of left intraventricular pressure, -MAX (anesthetized rats; 15 min after administration): −3548.9 ± 707.7 mm/Hg/s
- contractive pressure (anesthetized rats; 15 min after administration): 98.48 ± 16.13 mmHg
- diastolic pressure (anesthetized rats; 15 min after administration): 50.08 ± 9.88 mmHg
- heart rate (anesthetized rats; 15 min after administration): 324.96 ± 36.20 beat/min
- left intraventricular pressure (anesthetized rats; 15 min after administration): 120.22 ± 12.98 mmHg
- mean arterial pressure (anesthetized rats; 15 min after administration): 66.21 ± 11.57 mmHg
- change-rate of left intraventricular pressure MAX (anesthetized rats; 30 min after administration): 4152.8 ± 901.5 mmHg/s
- change-rate of left intraventricular pressure, -MAX (anesthetized rats; 30 min after administration): −3416.6 ± 767.5 mm/Hg/s
- contractive pressure (anesthetized rats; 30 min after administration): 94.47 ± 17.17 mmHg
- diastolic pressure (anesthetized rats; 30 min after administration): 48.00 ± 9.98 mmHg
- heart rate (anesthetized rats; 30 min after administration): 322.02 ± 51.09 beat/min
- left intraventricular pressure (anesthetized rats; 30 min after administration): 116.59 ± 13.59 mmHg
- mean arterial pressure (anesthetized rats; 30 min after administration): 63.49 ± 11.93 mmHg
- change-rate of left intraventricular pressure MAX (anesthetized rats; 60 min after administration): 3919.4 ± 784.0 mmHg/s
- contractive pressure (anesthetized rats; 60 min after administration): 98.49 ± 22.31 mmHg
- diastolic pressure (anesthetized rats; 60 min after administration): 48.81 ± 11.47 mmHg
- heart rate (anesthetized rats; 60 min after administration): 317.91 ± 58.04 beat/min
- left intraventricular pressure (anesthetized rats; 60 min after administration): 115.68 ± 15.37 mmHg
- mean arterial pressure (anesthetized rats; 60 min after administration): 65.37 ± 14.57 mmHg
- change-rate of left intraventricular pressure MAX (anesthetized rats; 90 min after administration): 3759.0 ± 814.5 mmHg/s
- change-rate of left intraventricular pressure, -MAX (anesthetized rats; 90 min after administration): −3247.4 ± 773.2 mm/Hg/s
- contractive pressure (anesthetized rats; 90 min after administration): 99.15 ± 23.91 mmHg
- diastolic pressure (anesthetized rats; 90 min after administration): 49.38 ± 13.27 mmHg
- heart rate (anesthetized rats; 90 min after administration): 329.61 ± 55.70 beat/min
- left intraventricular pressure (anesthetized rats; 90 min after administration): 115.10 ± 16.60 mmHg
- mean arterial pressure (anesthetized rats; 90 min after administration): 65.97 ± 16.34 mmHg
- change-rate of left intraventricular pressure MAX (anesthetized rats; 120 min after administration): 4044.6 ± 844.9 mmHg/s
- change-rate of left intraventricular pressure, -MAX (anesthetized rats; 120 min after administration): −3452.2 ± 630.9 mm/Hg/s
- contractive pressure (anesthetized rats; 120 min after administration): 102.58 ± 27.01 mmHg
- diastolic pressure (anesthetized rats; 120 min after administration): 51.84 ± 13.93 mmHg
- heart rate (anesthetized rats; 120 min after administration): 328.05 ± 58.98 beat/min
- left intraventricular pressure (anesthetized rats; 120 min after administration): 118.39 ± 16.55 mmHg
- mean arterial pressure (anesthetized rats; 120 min after administration): 68.75 ± 17.93 mmHg
- change-rate of left intraventricular pressure MAX (anesthetized rats; before administration): 5455.9 ± 1418.1 mmHg/s
- change-rate of left intraventricular pressure, -MAX (anesthetized rats; before administration): −4215.6 ± 1058.0 mm/Hg/s
- contractive pressure (anesthetized rats; before administration): 137.10 ± 28.79 mmHg
- diastolic pressure (anesthetized rats; before administration): 75.39 ± 19.27 mmHg
- heart rate (anesthetized rats; before administration): 363.19 ± 46.67 beat/min
- left intraventricular pressure (anesthetized rats; before administration): 137.79 ± 18.96 mmHg
- mean arterial pressure (anesthetized rats; before administration): 95.96 ± 22.22 mmHg
- dp/dt (in words) (anesthetized rats; verapamil group (11.4 mg/kg)): significantly reduced
- effect on the heart rate (in words) (anesthetized rats; verapamil group (11.4 mg/kg)): significantly reduced
- left intraventricular pressure (in words) (anesthetized rats; verapamil group (11.4 mg/kg)): significantly reduced
- −dp/dt (in words) (anesthetized rats; verapamil group (11.4 mg/kg)): significantly reduced
- mean arterial pressure, systolic pressure and diastolic pressure (in words) (anesthetized rats; verapamil group (11.4 mg/kg), 5-120 min): significantly reduce
- Infarct region weight [3]: 0.18 ± 0.04 g
- Non-infarct region weight [3]: 0.46 ± 0.08 g
- Percentage (infarct cardiac muscles of whole ventricle, by weight) [3]: 27.60 ± 5.03 %
- Ventricle weight [3]: 0.65 ± 0.09 g
- MDA (malondialdehyde (MDA)): 11.86 ± 5.93 nmol/mL
- SOD [4]: 126.16 ± 28.10 U/mL
- Elevation of ST-T segment ([5]; 0 min after modeling): 0.23 ± 0.12 mV
- Elevation of ST-T segment ([5]; 24 h after modeling): 0.18 ± 0.04 mV
- Elevation of ST-T segment, Change rate ([5]; 24 h after modeling): 19.17 ± 20.94 %
- Elevation of ST-T segment ([5]; before modeling): 0.23 ± 0.04 mV
